The source made the active and inactive calls.
Assays:
[1] = Luminescence Cell-Based Dose Retest to Confirm Inhibitors of Cancer Stem Cells. [Related pubchem assays (depositor defined):AID2717, AID2721]; assay type: functional; settings: Homo sapiens
[2] = target: Neurotensin receptor type 1 (Homo sapiens, UniProt P30989); assay type: functional;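 also: Image-based confirmatory dose-response assay measuring agonist activity at NTR1; NTR1-expressing U2OS osteosarcoma cells imaged for beta-arrestin GFP spot formation; agonist potency where compounds increase beta-arrestin recruitment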
Nonstructural protein 1 = Nonstructural protein 1 (Influenza A virus, UniProt Q194T2); assay type: functional, Influenza A virus (A/California/07/2009(H1N1))
[3] = target: T1, Replicative DNA helicase DnaB (Mycobacterium tuberculosis, UniProt P9WMR3); test: DnaB intein splicing inhibitors, dose response, biochemical, cell-free fluorescence (AID 449749); assay type: functional
T1 sequence (P9WMR3 whole entry): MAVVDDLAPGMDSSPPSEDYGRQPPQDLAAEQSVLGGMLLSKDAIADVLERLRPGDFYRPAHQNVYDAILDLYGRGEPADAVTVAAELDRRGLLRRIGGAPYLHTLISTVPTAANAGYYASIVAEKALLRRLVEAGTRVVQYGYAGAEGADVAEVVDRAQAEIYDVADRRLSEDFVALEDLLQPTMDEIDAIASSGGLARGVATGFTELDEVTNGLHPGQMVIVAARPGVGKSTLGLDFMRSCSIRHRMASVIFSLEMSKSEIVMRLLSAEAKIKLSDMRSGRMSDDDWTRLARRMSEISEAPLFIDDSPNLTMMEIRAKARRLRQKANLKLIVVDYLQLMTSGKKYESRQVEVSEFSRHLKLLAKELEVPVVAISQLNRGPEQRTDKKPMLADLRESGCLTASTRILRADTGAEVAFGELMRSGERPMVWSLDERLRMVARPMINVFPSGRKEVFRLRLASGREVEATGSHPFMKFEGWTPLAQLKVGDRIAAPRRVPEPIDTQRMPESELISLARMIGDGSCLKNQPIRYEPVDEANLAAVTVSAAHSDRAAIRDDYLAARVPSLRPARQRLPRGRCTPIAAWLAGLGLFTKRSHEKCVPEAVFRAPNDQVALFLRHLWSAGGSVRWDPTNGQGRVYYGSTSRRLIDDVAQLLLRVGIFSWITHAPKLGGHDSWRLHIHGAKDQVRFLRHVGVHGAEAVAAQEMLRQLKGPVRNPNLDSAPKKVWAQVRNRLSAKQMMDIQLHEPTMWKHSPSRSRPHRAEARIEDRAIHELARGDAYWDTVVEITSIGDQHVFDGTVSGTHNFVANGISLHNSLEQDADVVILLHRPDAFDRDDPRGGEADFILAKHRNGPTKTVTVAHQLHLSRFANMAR

Protein RecA = target: T2, Protein RecA (Mycobacterium tuberculosis, UniProt P9WHJ3); test: Fluorescence Cell-Free Homogeneous Dose Retest to Identify Inhibitors of RecA-Intein Splicing Activity. [Related pubchem assays (depositor defined):AID2097, AID2223, AID489010, AID492950]; assay type: functional
T2 sequence (P9WHJ3 whole entry): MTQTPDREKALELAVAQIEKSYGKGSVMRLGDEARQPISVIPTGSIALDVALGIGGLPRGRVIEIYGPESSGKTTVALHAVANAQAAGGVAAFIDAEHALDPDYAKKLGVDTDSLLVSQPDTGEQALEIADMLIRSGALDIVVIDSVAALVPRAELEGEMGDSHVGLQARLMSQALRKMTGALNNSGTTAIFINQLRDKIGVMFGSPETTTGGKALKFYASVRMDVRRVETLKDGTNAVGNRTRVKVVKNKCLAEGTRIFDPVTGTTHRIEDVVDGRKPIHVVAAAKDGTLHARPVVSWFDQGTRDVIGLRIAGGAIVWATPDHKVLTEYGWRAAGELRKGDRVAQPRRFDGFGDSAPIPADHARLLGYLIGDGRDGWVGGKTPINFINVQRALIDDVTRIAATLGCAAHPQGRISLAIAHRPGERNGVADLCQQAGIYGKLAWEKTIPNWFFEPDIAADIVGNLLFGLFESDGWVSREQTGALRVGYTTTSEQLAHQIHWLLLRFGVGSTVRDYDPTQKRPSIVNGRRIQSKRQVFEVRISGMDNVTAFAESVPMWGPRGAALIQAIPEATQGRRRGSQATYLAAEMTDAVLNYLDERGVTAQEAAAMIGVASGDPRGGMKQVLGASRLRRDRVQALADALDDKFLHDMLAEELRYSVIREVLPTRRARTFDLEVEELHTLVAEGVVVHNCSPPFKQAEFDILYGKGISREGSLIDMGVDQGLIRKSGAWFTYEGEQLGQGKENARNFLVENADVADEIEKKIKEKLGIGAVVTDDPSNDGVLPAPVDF

[4] = target: Multidrug resistance protein CDR2 (Candida albicans (strain SC5314 / ATCC MYA-2876) (Yeast), UniProt P78595); test: CaCDR2 efflux pump inhibitors in yeast, dose response, S. cerevisiae AD1-8u, singleplex, Cherry Pick1 hits (AID 588604); assay type: functional
Multidrug resistance protein CDR2, sequence (P78595 whole entry): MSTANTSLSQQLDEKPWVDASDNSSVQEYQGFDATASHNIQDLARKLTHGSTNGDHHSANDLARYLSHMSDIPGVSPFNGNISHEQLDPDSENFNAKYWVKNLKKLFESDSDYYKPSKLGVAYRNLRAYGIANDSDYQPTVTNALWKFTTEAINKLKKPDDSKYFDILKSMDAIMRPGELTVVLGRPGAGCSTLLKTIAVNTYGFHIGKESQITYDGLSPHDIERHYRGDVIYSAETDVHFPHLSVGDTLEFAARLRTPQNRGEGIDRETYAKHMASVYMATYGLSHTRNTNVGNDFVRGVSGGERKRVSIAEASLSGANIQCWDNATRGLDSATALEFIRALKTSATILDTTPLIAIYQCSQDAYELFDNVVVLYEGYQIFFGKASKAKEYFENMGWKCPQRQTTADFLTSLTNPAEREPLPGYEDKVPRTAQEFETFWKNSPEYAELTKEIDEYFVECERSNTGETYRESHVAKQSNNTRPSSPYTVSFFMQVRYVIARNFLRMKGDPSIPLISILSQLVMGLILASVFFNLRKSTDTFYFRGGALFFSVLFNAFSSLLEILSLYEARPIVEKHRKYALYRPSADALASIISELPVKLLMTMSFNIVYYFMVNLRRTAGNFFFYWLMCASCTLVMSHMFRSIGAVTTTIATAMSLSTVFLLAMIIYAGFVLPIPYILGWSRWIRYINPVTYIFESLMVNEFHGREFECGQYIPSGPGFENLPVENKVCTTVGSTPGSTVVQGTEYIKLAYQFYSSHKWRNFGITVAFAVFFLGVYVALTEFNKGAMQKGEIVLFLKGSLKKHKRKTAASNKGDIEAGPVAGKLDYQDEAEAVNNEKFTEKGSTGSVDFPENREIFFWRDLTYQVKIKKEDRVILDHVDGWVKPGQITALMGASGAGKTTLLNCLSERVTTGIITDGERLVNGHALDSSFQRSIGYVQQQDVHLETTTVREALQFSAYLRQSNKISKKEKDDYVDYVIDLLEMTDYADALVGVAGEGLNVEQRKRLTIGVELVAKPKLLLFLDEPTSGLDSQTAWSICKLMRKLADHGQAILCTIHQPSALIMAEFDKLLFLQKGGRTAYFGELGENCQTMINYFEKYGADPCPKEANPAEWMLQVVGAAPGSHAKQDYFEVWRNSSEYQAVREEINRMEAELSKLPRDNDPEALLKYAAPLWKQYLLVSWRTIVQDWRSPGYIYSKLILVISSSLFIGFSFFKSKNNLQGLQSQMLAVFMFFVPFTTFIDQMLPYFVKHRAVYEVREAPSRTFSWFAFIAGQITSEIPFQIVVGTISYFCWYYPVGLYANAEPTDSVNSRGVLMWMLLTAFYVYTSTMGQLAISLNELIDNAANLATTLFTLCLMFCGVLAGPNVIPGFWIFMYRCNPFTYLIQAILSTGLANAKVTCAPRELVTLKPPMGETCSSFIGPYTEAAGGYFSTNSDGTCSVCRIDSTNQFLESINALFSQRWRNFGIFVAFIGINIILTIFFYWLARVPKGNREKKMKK

Neurotensin receptor type 1, sequence (P30989 whole entry): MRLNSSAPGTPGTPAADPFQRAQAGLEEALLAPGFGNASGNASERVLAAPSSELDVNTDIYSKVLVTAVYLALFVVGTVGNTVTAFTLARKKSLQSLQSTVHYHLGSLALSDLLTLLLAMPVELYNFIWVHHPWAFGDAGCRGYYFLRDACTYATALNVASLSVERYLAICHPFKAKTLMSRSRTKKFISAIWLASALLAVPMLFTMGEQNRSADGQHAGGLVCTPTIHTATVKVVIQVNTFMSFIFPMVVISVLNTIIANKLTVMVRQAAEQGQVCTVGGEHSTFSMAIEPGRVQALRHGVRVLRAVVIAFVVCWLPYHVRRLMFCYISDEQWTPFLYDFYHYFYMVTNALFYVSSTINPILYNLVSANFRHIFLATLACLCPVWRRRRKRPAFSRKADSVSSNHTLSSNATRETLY
Nonstructural protein 1, sequence (Q194T2 whole entry): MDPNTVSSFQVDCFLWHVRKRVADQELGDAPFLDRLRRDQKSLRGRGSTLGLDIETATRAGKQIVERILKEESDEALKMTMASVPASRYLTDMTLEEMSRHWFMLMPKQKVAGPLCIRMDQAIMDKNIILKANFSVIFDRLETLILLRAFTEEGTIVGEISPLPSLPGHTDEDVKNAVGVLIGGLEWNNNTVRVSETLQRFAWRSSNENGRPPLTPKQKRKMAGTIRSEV

CCCCCc1cc(=O)oc2c(C(CCN3CCCC(C)C3)c3ccc(N(C)C)cc3)c(OC)cc(OC)c12 (stereo unspecified)
active: AC50 [1] 5.3 µM | EC50 [2] 17.7 µM | IC50 (Nonstructural protein 1) 5.48 µM | AC50 [3] 8.48 µM | EC50 (Protein RecA) 8.08 µM | EC50 [4] 25.4 µM

From ChEMBL document CHEMBL1201862, “PubChem BioAssay data set” (2004)
